Experimental data reported in article PMC7954794, “Protein context shapes the specificity of SH3 domain-mediated interactions in vivo” (Nature Communications, 2021).

Assays:
[1] = test system: NCK2; experiment: NCK2 phase separation with 1,6-hexanediol (Fig. S7C); format: biochemical, mouse; conditions: 0%, 5%, and 10% 1,6-hexanediol, 60 mM NaCl, n = 3
Description: (§1) Purified NCK2 proteins were diluted in GST buffer to identical concentrations. At 500 mM NaCl present in this buffer, all NCK2 constructs were completely soluble. Phase transition was initiated by dilution in imidazole buffer (10 mM imidazole (Bio Basic) pH 7.0, 1 mM DTT, 1 mM EGTA (Millipore Sigma), 1 mM MgCl2, 2.5% Glycerol (Bioshop Canada), 3% Dextran (Millipore Sigma)) containing various amount of NaCl so that the final concentration of NaCl would correspond to those in Supplementary Fig. 7B. For all the other experiments, the phase transition of NCK2 proteins was assessed at 60 mM NaCl. […] The pellets to supernatant fractions were used to quantify phase transition at 60 mM NaCl (7 replicates) via Coomassie protein quantification. The involvement of weak hydrophobic interactions in NCK2 driven phase transition was assessed using 1,6-Hexanediol (Millipore Sigma) at 60 mM NaCl. Imidazole buffer containing 0%, 1%, 5%, and 10% 1,6-Hexanediol was first prepared and phase transition was initiated and analyzed as described above. Finally, the competition of SH3-2 dependent homotypic NCK2 interaction with an SH3-2 binding peptide was assessed in the presence of 5, 15, 45, 90, 150, or 300 μM PAK1 peptide ([…]) in imidazole buffer with 60 mM NaCl. […]

[2] = test system: Abp1 (1xFLAG); experiment: Western blot expression level of Abp1 SH3-swapped baits (Fig. S2A-B); format: cell-based, Saccharomyces cerevisiae; set-up: Flag (2 bands): unit not given here; conditions: sheet FigS2A-B; for Ratio Swap/WT Flag: Flag signal relative to Abp1 WT (Abp1-1 to Abp1-4 = 1); for Flag (2 bands): Western blot Flag signal (2 bands), Abp1 WT, SH3-deleted or SH3-swapped
Description: Precultures of yeast cells expressing baits fused with the DHFR F[1,2]-FLAG were grown overnight at 30 °C with agitation in synthetic complete medium. The next day, cells were expanded in synthetic complete medium to reach their exponential phase (OD600 of around 1.0), pelleted, and frozen at −80 °C. The equivalent of fifty OD600 of cells was resuspended in ice-cold yeast lysis buffer (10 mM Tris-HCl pH 7.4, 150 mM NaCl, 0.5 mM EDTA (Millipore Sigma), 1% Triton X-100 (Millipore Sigma), and one cOmplete Mini Protease Inhibitor Cocktail (Millipore Sigma) per 10 mL) with […] glass beads (Millipore Sigma) and disrupted at 4 °C by 10 cycles of 2 min vortexing and 2 min cooldown. The equivalent of […] of lysed cells was used for the immunoprecipitation of the bait proteins using FLAG-M2 agarose beads (Millipore Sigma). The beads were incubated with the cell lysates for 120 min at 4 °C with a slow rotation, followed by three washes with the yeast lysis buffer.
Protein extracts and affinity-purified baits from yeast and human lysed cells were migrated on 10% polyacrylamide gels. The separated proteins were then transferred to nitrocellulose membranes. Validation of correct protein loading was done with ponceau staining of the membranes. Before the primary antibody incubations, membranes were blocked in 5% milk. Protein signals were detected on an Amersham Imager 600RGB (GE Healthcare) following the incubation of the membranes with the appropriate HRP-conjugated secondary antibodies and the Clarity Western ECL Substrate (Bio-Rad). The antibodies used in this study are M2-HRP (A8592, Sigma, 1/50,000), rabbit anti-FLAG (F7425, Sigma, 1/1000), PAK (SC-881, Santa Cruz, 1/200), p130cas/BCAR1 (SC-860, Santa Cruz, 1/200), actin (Cell Signaling Technology, 1/2000), anti-mouse HRP (Cell Signaling Technology, 1/10,000) and anti-rabbit HRP (Cell Signaling Technology, 1/10,000). The quantification of the WB signals was performed with the Amersham Imager 600 analysis software (GE Healthcare).

[3] = test system: Abp1 PPIs; experiment: DHFR-PCA of Abp1 SH3-swapped baits (Fig. 2B-D, S2C, S2F); format: cell-based, Saccharomyces cerevisiae; conditions: number of interactions of Abp1 carrying the named SH3; sheet FigS2A-B
From the text: Having determined that multiple PPIs require SH3s, we asked whether the latter establish PPI specificity independently from their host proteins by swapping domains (Fig. 2A). Using the second round of genome editing, we individually replaced Abp1 SH3 with the 27 yeast SH3s and 3 human Abp1 orthologs’ SH3s (CTTN, HCLS1, and DBNL, Fig. 2B). The reintroduction of its own SH3 (Abp1SH3 in Abp1) reconstitutes almost perfectly Abp1’s interaction profile (Kendall’s τ = 0.93, Fig. 2B). […] No homologous SH3 domain fully re-establishes the normal Abp1 PPI profile (Fig. 2B and Supplementary Fig. 2C). However, we observe a significant correlation (cophenetic correlation = 0.20, p value = 0.005, Fig. 2C) between the similarity of PPI profiles (Fig. 2B) and the sequence similarity of the SH3s. […] Nonetheless, a subset of SH3-dependent PPIs is only observed with the endogenous domain. For instance, Hua2 and App1, both well-characterized partners of Abp1[14],[18],[19], are only detected when Abp1 contains its own SH3 (WT or swapped via editing). A given SH3 may therefore not be fully replaceable with other paralogous or orthologous domains. This pattern is confirmed by cellular growth phenotypic analyses (Supplementary Fig. 2D, E). PPIs, SH3 sequence similarity, and growth profiles under stress conditions are correlated (Supplementary Fig. 2D, E). This relationship is particularly clear when analyzing growth on media supplemented with hygromycin.
The stuffing of YSC84 SH3 rendered the strain sterile and was therefore not used for this study as the assays require crosses. For genes containing two SH3s (BZZ1 and BEM1), a combination of this first stuffer with a second one ([…]) coding for a highly similar linker ([…]) was used, which allowed targeting each SH3 position independently. The two N-terminal domains of SLA1, which are separated by six nucleotides, were stuffed by a single stuffer. Cells containing pCAS were selected via the G418 resistance cassette from the plasmid on YPD plates (YPD + NAT 100 μg/ml (DHFR F[1,2] selection) + G418 200 µg/mL (Bioshop Canada)). Colonies were randomly selected and grown in YPD media without G418 to allow plasmid loss. The correct insertion of the stuffer was validated by PCR and Sanger sequencing. The SH3-swapped, -shuffled, and -mutated strains were constructed following a second CRISPR–Cas9 editing step with the same procedures. The stuffer sequences were targeted by specific gRNAs (one gRNA per stuffer) and replaced by PCR amplified specific SH3 (with 40 bp homology arms) or libraries of mutated SH3 domains for Deep Mutational Scanning (DMS) with 78 bp flanking homology regions. Validation of the SH3 domain insertions was done as we previously described except for DMS libraries (see below).
The overall DHFR-PCA pipeline is based on Tarassov et al.[43] and the procedures have also been published as a visualized protocol. The screens were performed with robotically manipulated pin tools (BM5-SC1, S&P Robotics Inc.). First, the preys were cherry-picked from 96-well plates to omnitrays in a 384 format on YPD + HPH solid media. Plates were then combined into the 1536 format on YPD + HPH. The array was constituted of 575 preys previously shown to interact physically with at least one SH3-containing protein as reported in BioGRID V3.4.16 along with 40 negative controls. The prey array comprised a border of control strains of two rows and two columns corresponding to the PPI between LSM8-DHFR F[1,2] and CDC39-DHFR F[3]. This double border was used to remove border effects. Preys are present in duplicate at a randomized position in the 1536 array (except for YAL041W which is present four times per array). Baits were crossed with two prey plates, resulting in four independent bait–prey tests for each PPI. Baits were grown in liquid YPD + NAT and then transferred on solid YPD + NAT omnitrays. They were then replicated on YPD + NAT omnitrays in 1536 array format. […]

[4] = test system: NCK2; experiment: NCK2 phase separation with PAK1 peptide competition (Fig. S7A); format: biochemical, mouse; conditions: 5, 15, 45, 90, 150, or 300 μM peptide, 60 mM NaCl; phase contrast microscopy
Description: as §1

[5] = test system: NCK2 interactome in HEK293T cells; experiment: AP-SWATH (DIA) quantitative MS of NCK2 PPIs (Fig. 5A-C); format: cell-based, human; conditions: SAINT FDR < 1%; duplicates
Description: Human embryonic kidney 293T cells (HEK293T, ATCC:CRL-3216) were grown in Dulbecco’s Modified Eagle’s medium (DMEM) high glucose complemented with 10% fetal calf serum under 5% CO2 at 37 °C. Transient expression of cDNA in cells was performed by polyethylenimine (PEI, Millipore Sigma) transfections. Enrichment of phospho-dependent PPIs was done by treating HEK293T cells with the tyrosine phosphatase inhibitor pervanadate, freshly made by mixing 4 mM orthovanadate (Millipore Sigma) with 30% H2O2 (Millipore Sigma) in water in a 200:1 volume ratio. […]
NCK2 baits purified on beads from HEK293T cells (as previously described in the methods) were washed two additional times in 20 mM Tris-HCl pH 7.4 and eluted in 50 mM phosphoric acid. […] These were analyzed alongside four negative controls corresponding to transiently expressed 3×FLAG-GFP purified from HEK293T cells (as described for NCK2 constructs). […] The equivalent of one-third of each sample was used for the SWATH-libraries generation and another third for SWATH quantification. […] We validated that the same quantity of baits was used for each NCK2 chimeras by quantifying NCK2 peptides in each sample (see Supplementary Data 3). […]

| Molecule | Ratio Swap/WT Flag [2] | Flag (2 bands) [2] | Interactions in Abp1 [3] | further results |
| --- | --- | --- | --- | --- |
| OCCCCCCO [1,6-hexanediol] |  |  |  | Effect on NCK2 phase separation [1]: disrupts all NCK2 SH3-shuffled proteins in a similar manner |
| Cdc25 | 0.6887 | 152280 | 27 |  |
| DIQDKPPAPPMRNTST [PAK1 peptide] |  |  |  | Effect on NCK2 phase separation [4]: Phase separation is inhibited |
| Rvs167 | 0.1645 | 38158 | 91 |  |
| WT NCK2: wild-type NCK2 adaptor (mouse cDNA) with three SH3s and one SH2 |  |  |  | High confidence NCK2 PPIs [5]: 56 PPIs |
